In patent US20110123654A1, “SYNERGISTIC ENHANCEMENT OF CELLULAR ERGOGENIC NUTRIENT UPTAKE, LIKE CREATINE OR CARNITINE, WITH TARRAGON” (priority 2008, published 2011):

System: blood glucose levels
Experiment: Glucose challenge test in rats
Type: in vivo
Conditions: compared to control; p.o. 30 min before i.p. glucose challenge; non-fasted male Wistar rats
Protocol: A common way of testing for an effect of extracts or new chemical entities on blood glucose levels is the glucose challenge test (Verspohl, E. J.: Recommended testing in diabetes research. Planta Med 68 (7): 581-90, 2002) in which rats are given the extract, control, or a known antidiabetic substance with challenge an intraperitoneal (i.p.) dose of glucose. The extracts or extract PLUS creatine are given orally 30 min. before the glucose challenge. Blood samples are taken sublingual at time points 0, 15, 30, 60, and 120 minutes for the glucose challenge. This sampling scheme ensures to monitor both effects of extracts on the blood glucose levels after glucose challenge closely enough.
Male non-fasted Wistar rats weighing 250-300 g were purchased from Harlan (Indianapolis, Ind., U.S.A). […]
Blood was drawn at the appropriate time points from the sublingual vein after a short halothane anesthesia and stored at 4° C. with addition of heparin. […] The supernatant plasma was taken and analyzed using an autoanalyzer (Merck, Darmstadt). […]
Both percent and AUC data were analyzed by one-way ANOVA and Student-Newman-Keuls Multiple Comparison Test using Graphpad 4.0 Software, San Diego, USA. The AUC (area under the curve) was calculated using the trapezoidal rule without extensions beyond the last time point measured.

CN(CC(=O)O)C(=N)N.O [creatine monohydrate]
glucose disposal: no effect
